In patent US11566047B2, “Peptide or pharmaceutically acceptable salt thereof, or prodrug thereof” (TOKYO UNIVERSITY OF PHARMACY & LIFE SCIENCES, priority 2016, dated 2023):
Peptide text beside a SMILES is read from it. R111 = not defined here

Key:
[1] = tested on: anterior tibial muscles of mdx mice; assay: Influence on anterior tibial muscles of Duchenne muscular dystrophy model mdx mice (muscle weight); format: in vivo; settings: mdx male mice aged 5 weeks; 40 μL of 0.75 mM intramuscular, again after 2 weeks; necropsy after further 4 weeks; vs saline leg; average of three mice
Description: Regarding PDM-46 prepared in Synthesis Example 18, evaluation was performed by the following method in order to check the muscle mass increasing effect in vivo.
PDM-46 was dissolved in saline to become 0.75 mM. 40 μL of PDM-46 was intramuscularly administered into the left leg anterior tibial muscles of anesthetized mdx male mice aged 5 weeks (purchased from CLEA Japan, Inc.) (as a control, 40 μL of saline was intramuscularly administered into the right leg anterior tibial muscles). After 2 weeks, the same amount of PDM-46 was administered to the same site again. After further 4 weeks, the mice were subjected to necropsy, the anterior tibial muscles were excised from the both legs, and the weight thereof was measured.

mdx mice = assay: Influence on serum creatine kinase level of mdx mice; format: in vivo; settings: mdx male mice; 40 μL of 0.75 mM intramuscular into calf muscles of both legs on day 0 and day 14
Description: Evaluation was performed by the following method in order to check the effect of nPDM-55/E31R prepared in Synthesis Example 36 to a serum creatine kinase (CK) value in mdx mice. Incidentally, 3d prepared in Synthesis Example 75 was used as Comparative Example.
nPDM-55/E31R and 3d were dissolved in saline to become 0.75 mM. 40 μL of nPDM-55/E31R was intramuscularly administered into the calf muscles of both legs of anesthetized mdx mice aged 5 weeks (all mice were males, purchased from CLEA Japan, Inc.). After 2 weeks, the same amount of nPDM-55/E31R was administered to the same site again. Serum samples were collected immediately before administration of nPDM-55/E31R and 3d (day 0, day 14) and further also collected after 4 weeks (day 42). […] From those results, it was shown that nPDM-55/E31R has an effect of continually maintaining the CK level in blood to be low as compared to 3d.

[2] = tested on: calf muscles of mdx mice and C57BL/6 mice; assay: Influence on calf muscles of mdx mice and C57BL/6 mice (cross-sectional areas of muscle fibers); format: in vivo
Description: Evaluation was performed by the following method in order to check the muscle mass increasing effect in vivo of nPDM-55/E31R prepared in Synthesis Example 36.
nPDM-55/E31R was dissolved in saline to become 0.75 mM. 40 μL of nPDM-55/E31R was intramuscularly administered into the calf muscles of both legs of anesthetized mdx mice and C57BL/6 mice aged 5 weeks (all mice were males, purchased from CLEA Japan, Inc.) (40 μL of saline was intramuscularly administered into the calf muscles of both legs of control mice). After 2 weeks, the same amount of nPDM-55/E31R was administered to the same site again. After further 4 weeks, the mice were subjected to necropsy, the calf muscles were excised from the both legs and transverse frozen sections (6 μm) were formed using cryostat. Regarding three sections stained with Hematoxylin-Eosin and randomly selected, cross-sectional areas of muscle fibers (200 fibers) were analyzed by a fluorescence microscope BZX700 (KEYENCE CORPORATION).

myostatin = molecular target: T1, myostatin (Homo sapiens, UniProt O14793); assay: cell-based; settings: HEK293, read-out: luciferase activity (relative; myostatin without test sample = 100%)
T1 sequence (O14793 267-375): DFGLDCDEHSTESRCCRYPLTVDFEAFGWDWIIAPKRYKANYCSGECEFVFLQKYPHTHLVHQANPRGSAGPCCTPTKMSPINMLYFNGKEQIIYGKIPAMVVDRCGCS
Description: Human embryo kidney cell HEK293 cells were cultured in a 5% (v/v) CO2 incubator set to 37° C. using DMEM (NACALAI TESQUE, INC.) including a 10% (v/v) fetal bovine serum (FBS) added with a 1% (v/v) non-essential amino acid (Wako Pure Chemical Corporation).
(2) In Vitro Reporter Assay
HEK293 cells were seeded on a D-Lys-corted 96-well transparent plate (Thermo Fisher Scientific Inc.) in an amount of 2.0×10^4 cells (100 μL DMEM+10% (v/v) FBS) per well and were cultured for 24 hours.
The cells were cultured at 37° C. for 24 hours, and after the cell culture solution was replaced with serum-free DMEM, the cells were cultured for 8 hours. Incidentally, pGL4.48 [luc2P/SBE/Hygro] includes firefly luciferase reporter gene luc2P under Smad binding region (SBE) control, and when a signaling pathway by the myostatin is activated, intracellular Smad forms a complex, and the complex is bonded to SBE to promote transcription of luc2P.
The peptide as a test sample was suspended as a stock solution using DMSO to become 10 mM and stored at −30° C. Before 1 hour from addition to the culture medium, the peptide and a myostatin (Merck Millipore Corp.) were suspended with serum-free DMEM and left to stand still at room temperature (25° C.) for 20 minutes. Subsequently, a peptide with an arbitrary final concentration (0.3 to […]) and 8 ng/mL of myostatin were added to the culture medium, and then culturing was performed for 4 hours. After culturing for 4 hours, the culture solution was removed by an aspirator and the cells were washed with 1×PBS. Thereafter, Passive Lysis buffer (Promega Corporation) was added in an amount of 50 μL per well to dissolve the cells. The dissolving solution was subjected to centrifugal separation at 4500 rpm for 6 minutes under the condition of 4° C. After 20 μL of supernatant subjected to centrifugal separation was transferred to a white 96-well plate (Costar), 50 μL of Luciferase Assay Reagent (Promega Corporation) was then added, emission was detected by Luminoskan Ascent (Thermo Fisher Scientific Inc.), and a firefly luciferase activity was measured. Further, after 50 μL of Stop & Glo Buffer (Promega Corporation) was added, emission was detected by Luminoskan Ascent, and a Renilla luciferase activity was measured to be regarded as an internal control.

Compound: R^111-WYIESIKIQIISKLRL-NH2 (R111-WYIESIKIQIISKLRL-NH2; reading uncertain; also: printed as R^111-WYIESIKIQIISKLRL-NH2) [PDM-46, R^111 = group of Formula (4), drawing 8]
- increase of muscle mass of anterior tibial muscles in terms of weight [1]: about 13%

Compound: CC[C@H](C)[C@H](NC(=O)[C@H](CCC(N)=O)NC(=O)[C@@H](NC(=O)[C@H](CCCCN)NC(=O)[C@@H](NC(=O)[C@H](Cc1c[nH]c2ccccc12)NC(=O)[C@H](CCCNC(=N)N)NC(=O)[C@@H](NC(=O)[C@H](Cc1ccc(O)cc1)NC(=O)[C@@H](N)Cc1c[nH]c2ccccc12)[C@@H](C)CC)[C@@H](C)CC)[C@@H](C)CC)C(=O)N[C@@H](Cc1c[nH]c2ccccc12)C(=O)N[C@@H](CO)C(=O)N[C@@H](CCCCN)C(=O)N[C@@H](CC(C)C)C(=O)N[C@@H](CCCNC(=N)N)C(=O)N[C@@H](CC(C)C)C(N)=O [nPDM-55/E31R, WYIRWIKIQIWSKLRL-NH2] (H-WYIRWIKIQIWSKLRL-NH2)
- serum creatine kinase (CK) level on day 14 versus day 0 (mdx mice): clearly lower value
- serum creatine kinase (CK) level on day 42 (mdx mice): clearly lower value
- cross-sectional areas of muscle fibers of calf muscles ([2]; mdx and C57BL/6 male mice, 40 μL of 0.75 mM intramuscular into both legs, again after 2 weeks, after further 4 weeks, vs saline mice): increased
- nature of the obtained muscular hypertrophy (analysis images) ([2]; mdx and C57BL/6 mice, Hematoxylin-Eosin stained sections): not inflammatory
- remaining activity at 0.3 µM (myostatin): ≤ 60%
